Tested on: peach aphid Myzus persicae
Experiment: Impairment of lipid neogenesis: 14C-acetate feeding by the sachet method, lipid extract separated by TLC
Format: in vivo
Excerpt: Peach aphid Myzus persicae larvae or adults were fed for two days with nutrient solutions with and without one of the identified ACCase inhibitors, using the sachet method (Nauen et al. 1996).
Thereafter, the animals were collected and homogenized in organic solvent using a pestle and mortar. The organic phase was cleansed of water-soluble constituents by repeatedly extracting it by shaking with aqueous solution, and the solvent was then evaporated. The pellet which remained was taken up in a little solvent and separated by thin-layer chromatography (TLC). The lipids which were separated were stained with amido black. ^14C-acetate which was incorporated into the lipids was detected by autoradiography after an exposure time of 2-3 days. To quantify the ^14C-incorporation into lipids, the bands in question were scraped out after staining, dissolved, and the activity was determined in a scintillation counter. […] Thus, no de novo lipid synthesis from acetate has taken place. […] It can be seen clearly that increasing inhibitor concentrations halt the de-novo lipid biosynthesis.
The mobile phase used for the TLC chromatography was n-hexane: diethyl ether: glacial acetic acid (60:45:1).

COC1CCC2(CC1)NC(=O)C(c1c(C)cc(C)c(C)c1C)=C2O (centres unmarked) [I-A, 4-hydroxy-8-methoxy-3-(2,3,4,6-tetramethylphenyl)-1-azaspiro[4,5]dec-32-en-2-one]
radiolabeled 14C-acetate incorporated into lipids during de-novo synthesis (autoradiograph of TLC plate) (fed for two days, exposure time 2-3 days, FIG. 1b, treated vs control aphids): no labeled lipids are present
lipid composition and lipid content (lipid status after acetate feeding, TLC stained with amido black) (larvae or adults fed for two days with nutrient solution with vs without active ingredient, FIG. 1a lanes 4-6 vs 1-3): No significant differences
